Consider 21 compounds from publication PMC6736568, “Discovery of Novel Anti-cryptosporidial Activities From Natural Products by in vitro High-Throughput Phenotypic Screening” (Frontiers in Microbiology, 2019).

Counter-ions that a name gives are not always drawn. Like-named read-outs stand apart in the source and are kept apart here.

The subject of one data set is Cryptosporidium parvum. In words: qRT-PCR assay of the growth of C. parvum in vitro in HCT-8 host cells (primary and secondary screening, EC50). The settings on record: Cryptosporidium parvum, HCT-8; primary screening at 10 uM; read-out: Inhibition (%). In kind it is cell-based.
The mark [1] stands for this setting: primary screening at 10 uM, treated vs control.

With `COc1cc(/C=C/C(=O)O)cc(OC)c1OC` [SINAPIC ACID METHYL ETHER], in the data set on HCT-8 host cells (Hs18S) (setting [1]), the “Hs18S ΔCT” value is given as 0.66. Further, in the data set on Cryptosporidium parvum, the inhibition (usually the change of the read-out against control, counted positive when it falls) at 10 µM is -20.8%. The cytotoxicity at 10 µM in the data set “in vitro” was found to be 36.6%.
In the case of `Cc1cc(O)c2c(O)c3c(O)cccc3cc2c1` [CHRYSAROBIN], the “Hs18S ΔCT” value in the data set on HCT-8 host cells (Hs18S) (human, 41 h, 10 μM) worked out at 0.48. In addition, in the data set with Cryptosporidium parvum, the inhibition at 10 µM is -8.96%. The cytotoxicity at 41 h, 10 µM in the data set “in vitro” (human) was 28.2%.
`NCCCNCCCCNCCCN` [SPERMINE]: the “Hs18S ΔCT” value with HCT-8 host cells (Hs18S) (human, 41 h, 10 μM) is given as -0.43. In addition, the inhibition at 10 µM in the data set with Cryptosporidium parvum is -7.42%. Further, in “in vitro” (human), the cytotoxicity at 41 h, 10 µM was -35.1%.
On to `COc1c2c(cc3occ(-c4ccc5c(c4)OCO5)c(=O)c13)OC(C)(C)C=C2` [METHYL ROBUSTONE], for which, in the data set with HCT-8 host cells (Hs18S) (human, 41 h, 10 μM), the “Hs18S ΔCT” value is listed as -0.08. Moreover, the inhibition at 10 µM with Cryptosporidium parvum was -44.6%. For the same compound, in “in vitro” (human), the cytotoxicity at 41 h, 10 µM is -5.4%.
As to `COc1cc(-c2coc3cc(OCc4ccccc4)c(OC)c(O)c3c2=O)cc(OCc2ccccc2)c1OC` [IRIGENIN, DIBENZYL ETHER], in the data set with HCT-8 host cells (Hs18S) (human, 41 h, 10 μM), the “Hs18S ΔCT” value was 0.00. The inhibition at 10 µM in the data set on Cryptosporidium parvum is -15.7%. The cytotoxicity at 41 h, 10 µM in “in vitro” (human) was determined as 0%.
The matching figures for `C[C@H]1O[C@H](O[C@H]2[C@H](O)[C@@H](O)[C@@H](O[C@H]3[C@H](O)[C@@H](O)C(O)O[C@@H]3CO)O[C@@H]2CO)[C@H](O)[C@@H](O)[C@@H]1N[C@H]1C=C(CO)[C@@H](O)[C@H](O)[C@H]1O` (stereo partly shown) [ACARBOSE]: 0.39, 37.8% and 23.6%.
Turning to `C1CCN2C[C@@H]3C[C@@H](CN4CCCC[C@@H]34)[C@H]2C1` [SPARTEINE SULFATE], in the data set with HCT-8 host cells (Hs18S) (setting [1]), the “Hs18S ΔCT” value is given as 0.04. Moreover, the inhibition at 10 µM with Cryptosporidium parvum was -14.6%. Further, the cytotoxicity at 10 µM in the data set “in vitro” was 3%.
In the case of `CC(=O)O[C@@H]1C[C@H]2C(C)(C)C(=O)CC[C@]2(C)[C@H]2CC[C@@]3(C)[C@H](c4ccoc4)OC(=O)[C@H]4O[C@]43[C@@]21C` [DIHYDROGEDUNIN], the “Hs18S ΔCT” value in the data set on HCT-8 host cells (Hs18S) (human, 41 h, 10 μM) is -0.24. In addition, the inhibition at 10 µM with Cryptosporidium parvum worked out at 33.3%. Also, the cytotoxicity at 41 h, 10 µM in “in vitro” (human) is -17.9%.
As to `CC1(C)CC2C1CCC1(C)OC2(C)CCC1O` (stereo not shown) [3,7-EPOXYCARYOPHYLLAN-6-OL], the “Hs18S ΔCT” value in the data set with HCT-8 host cells (Hs18S) (human, 41 h, 10 μM) turned out to be 0.11. For the same compound, in the data set on Cryptosporidium parvum, the inhibition at 10 µM stood at 12.9%. Also, the cytotoxicity at 41 h, 10 µM in the data set “in vitro” (human) amounted to 7.2%.
As to `COc1cc2occc2c2oc(=O)ccc12` [ISOBERGAPTENE], the “Hs18S ΔCT” value in the data set with HCT-8 host cells (Hs18S) (setting [1]) stood at 0.17. Besides, the inhibition at 10 µM in the data set on Cryptosporidium parvum amounted to 2%. The cytotoxicity at 10 µM in the data set “in vitro” was determined as 11%.
Consider `COc1cc(O)c2c(=O)cc(C)oc2c1CC=C(C)C` [HETEROPEUCENIN, METHYL ETHER], for which, in the data set on HCT-8 host cells (Hs18S) (human, 41 h, 10 μM), the “Hs18S ΔCT” value is listed as -0.10. In addition, the inhibition at 10 µM with Cryptosporidium parvum is -96.3%. For the same compound, the cytotoxicity at 41 h, 10 µM in “in vitro” (human) was -7.2%.
On the same counts, the results for `O=C1O[C@H]([C@@H](O)CO)C(O)=C1O` [ASCORBIC ACID] are 0.44, 12% and 26.2%.
As to `C=C[C@H]1CN2CC[C@H]1C[C@H]2[C@H](O)c1ccnc2ccccc12` [CINCHONIDINE], in the data set with HCT-8 host cells (Hs18S) (setting [1]), the “Hs18S ΔCT” value is reported as -0.20. Besides, the inhibition at 10 µM in the data set on Cryptosporidium parvum came out at 3.76%. Besides, the cytotoxicity at 41 h, 10 µM in “in vitro” is -15.2%.
For `N=C(N)NCCCCN` [AGMATINE SULFATE], the “Hs18S ΔCT” value in the data set on HCT-8 host cells (Hs18S) (setting [1]) is 0.21. In addition, in the data set with Cryptosporidium parvum, the inhibition at 10 µM was -2.93%. In “in vitro”, the cytotoxicity at 10 µM came out at 13.5%.
Consider `COC(=O)C1=CCCN(C)C1` [ARECOLINE HYDROBROMIDE], for which the “Hs18S ΔCT” value in the data set with HCT-8 host cells (Hs18S) (setting [1]) is listed as -0.47. Further, the inhibition at 10 µM in the data set on Cryptosporidium parvum was -6.72%. The cytotoxicity at 10 µM in the data set “in vitro” was -38.7%.
Regarding `COc1ccc(C(=O)/C=C/c2ccccc2)cc1` [4'-METHOXYCHALCONE], the “Hs18S ΔCT” value with HCT-8 host cells (Hs18S) (setting [1]) was -0.16. The inhibition at 10 µM with Cryptosporidium parvum was found to be 20%. Besides, the cytotoxicity at 41 h, 10 µM in “in vitro” (human) is -12%.
Take `O=c1ccc2ccc(O)cc2o1` [UMBELLIFERONE]: in the data set with HCT-8 host cells (Hs18S), the “Hs18S ΔCT” value was -0.92. Further, the inhibition at 10 µM in the data set with Cryptosporidium parvum was -15.7%. Further, the cytotoxicity at 10 µM in “in vitro” is -88.9%.
In the case of `COC(=O)c1cc(O)c(=O)c2c(O)c(O)ccc2c1` [METHYL 7-DESHYDROXYPYROGALLIN-4-CARBOXYLATE], in the data set on HCT-8 host cells (Hs18S) (human, 41 h, 10 μM), the “Hs18S ΔCT” value was determined as 0.16. Further, the inhibition at 10 µM in the data set on Cryptosporidium parvum is -4.08%. The cytotoxicity at 41 h, 10 µM in the data set “in vitro” (human) is 10.5%.
For the compound `CC(=O)OCC(=O)[C@H]1CC[C@H]2[C@@H]3CC=C4C[C@@H](O)CC[C@]4(C)[C@H]3CC[C@]12C` [21-ACETOXYPREGNENOLONE], the “Hs18S ΔCT” value in the data set with HCT-8 host cells (Hs18S) (human, 41 h, 10 μM) is reported as 0.10. Further, the inhibition at 10 µM in the data set with Cryptosporidium parvum was -41.2%. For the same compound, the cytotoxicity at 41 h, 10 µM in the data set “in vitro” (human) was 6.5%.
Turning to `C[C@@H]1O[C@@H](O[C@@H]2C=C3CC[C@@H]4[C@H](CC[C@]5(C)[C@@H](c6ccc(=O)oc6)CC[C@]45O)[C@@]3(C)CC2)[C@H](O)[C@H](O)[C@H]1O` [PROSCILLARIDIN], the “Hs18S ΔCT” value with HCT-8 host cells (Hs18S) (setting [1]) was 13.28. Further, the cytotoxicity at 10 µM in “in vitro” amounted to 100%.
As for `COc1cc([C@@H]2c3cc4c(cc3[C@H](O)[C@H]3COC(=O)[C@H]23)OCO4)cc(OC)c1OC` [PODOFILOX], the “Hs18S ΔCT” value in the data set on HCT-8 host cells (Hs18S) (setting [1]) was 5.42. Also, in the data set “in vitro”, the cytotoxicity at 41 h, 10 µM amounted to 97.7%.
